Data from publication PMC9609767, “Radiosynthesis and Preclinical Evaluation of an ^18F-Labeled Triazolopyridopyrazine-Based Inhibitor for Neuroimaging of the Phosphodiesterase 2A (PDE2A)” (Pharmaceuticals, 2022).

Assay: Dynamic PET/MR study in CD-1 mouse
Assay type: in vivo
Settings: for Uptake (SUVmean): uncorrected for metabolites
Description: For the time of the experiments, one female CD-1 mouse (10 weeks; 30.5 g) and one female SPRD rat (9 weeks; 256 g) were kept in a dedicated climatic chamber with free access to water and food under a 12:12 h dark:light cycle at a constant temperature (24 °C). The animals were anesthetized (Anaesthesia Unit U-410, agntho’s, Lidingö, Sweden) with isoflurane (2.0%, 300 mL/min) delivered in a 60% oxygen/40% air mixture (Gas Blender 100 Series, MCQ instruments, Rome, Italy) and their body temperature maintained at 37 °C with a thermal bed system for the duration of the PET studies. A dynamic PET scan (PET/MR 1T, Mediso nanoScan®, Hungary) started 20 s before intravenous injection into the tail vein of [^18F]11 and was performed in mouse for 60 min (4.9 MBq in 150 μL isotonic saline; 20.5 nmol/kg; Am: 8.9 GBq/μmol, EOS) in rat for 30 min (29.7 MBq in 400 μL isotonic saline; 12 nmol/kg; Am: 11 GBq/μmol, EOS). Each PET image was corrected for random coincidences, dead time, scatter and attenuation (AC), based on a whole body (WB) MR scan. The reconstruction parameters for the list mode data were 3D-ordered subset expectation maximization (OSEM), 4 iterations, 6 subsets, energy window: 400–600 keV, coincidence mode: 1–5, ring difference: 81. Preceding the PET scan a T1 weighted WB gradient echo sequence (TR/TE: 20/6.4 ms, NEX: 1, FA: 25, FOV: 64 × 64 mm, Matrix: 128 × 128, STh: 0.5 mm) was performed for AC and anatomical orientation. PET Images were analyzed with PMOD (PMOD Technologies LLC, v. 4.1, Zurich, Switzerland). The respective brain regions were identified using the mouse brain atlas template Ma-Benveniste-Mirrione-T2 or the rat brain atlas template Schwarz-T2. The regional activity data (radioactivity concentration, kBq/mL) were normalized to the injected dose (MBq) and corrected for the animal weight (g) to provide standardized uptake values (SUV, g/mL). Finally, the results of the PETscans are expressed as mean SUV of the respective region of interest ROI.

CCCC(O)c1ccc([18F])c(-c2nnc3c(C)nc4ccc(C5CC5)nc4n23)c1 (stereo not drawn) [[^18F]11]
maximum SUV in small intestine (60 min p.i.): ~ 35 SUV | SUV in bladder, spleen, muscle, gallbladder, kidney, and liver (all time points investigated): < 5 SUV | Uptake (SUVmean) (bladder, 5 min): 0.10 SUV | Uptake (SUVmean) (bladder, 15 min): 0.08 SUV | Uptake (SUVmean) (bladder, 30 min): 0.10 SUV | Uptake (SUVmean) (bladder, 45 min): 0.07 SUV | Uptake (SUVmean) (bladder, 60 min): 0.06 SUV | Uptake (SUVmean) (blood, 5 min): 0.93 SUV | Uptake (SUVmean) (blood, 15 min): 0.56 SUV | Uptake (SUVmean) (blood, 30 min): 0.46 SUV | Uptake (SUVmean) (blood, 45 min): 0.34 SUV | Uptake (SUVmean) (blood, 60 min): 0.32 SUV | Uptake (SUVmean) (bones, 5 min): 0.71 SUV | Uptake (SUVmean) (bones, 15 min): 0.47 SUV | Uptake (SUVmean) (bones, 30 min): 0.31 SUV | Uptake (SUVmean) (bones, 45 min): 0.23 SUV | Uptake (SUVmean) (bones, 60 min): 0.20 SUV | Uptake (SUVmean) (caecum, 5 min): 0.10 SUV | Uptake (SUVmean) (caecum, 15 min): 0.12 SUV | Uptake (SUVmean) (caecum, 30 min): 0.11 SUV | Uptake (SUVmean) (caecum, 45 min): 0.11 SUV | Uptake (SUVmean) (caecum, 60 min): 0.16 SUV | TAC peak value (SUV) (cerebellum, at 0.8 min): 0.61 SUV | TAC peak value (SUV) (cortex, at 2.8 min): 0.47 SUV | Uptake (SUVmean) (gallbladder, 5 min): 1.41 SUV | Uptake (SUVmean) (gallbladder, 15 min): 1.78 SUV | Uptake (SUVmean) (gallbladder, 30 min): 1.46 SUV | Uptake (SUVmean) (gallbladder, 45 min): 1.32 SUV | Uptake (SUVmean) (gallbladder, 60 min): 1.34 SUV | Uptake (SUVmean) (heart, 5 min): 1.11 SUV | Uptake (SUVmean) (heart, 15 min): 0.65 SUV | Uptake (SUVmean) (heart, 30 min): 0.52 SUV | Uptake (SUVmean) (heart, 45 min): 0.37 SUV | Uptake (SUVmean) (heart, 60 min): 0.35 SUV | TAC peak value (SUV) (hippocampus, at 2.8 min): 0.70 SUV | Uptake (SUVmean) (kidney left, 5 min): 2.79 SUV | Uptake (SUVmean) (kidney left, 15 min): 2.37 SUV | Uptake (SUVmean) (kidney left, 30 min): 1.61 SUV | Uptake (SUVmean) (kidney left, 45 min): 1.18 SUV | Uptake (SUVmean) (kidney left, 60 min): 1.17 SUV | Uptake (SUVmean) (liver, 5 min): 3.40 SUV | Uptake (SUVmean) (liver, 15 min): 4.16 SUV | Uptake (SUVmean) (liver, 30 min): 3.62 SUV | Uptake (SUVmean) (liver, 45 min): 3.17 SUV | Uptake (SUVmean) (liver, 60 min): 3.00 SUV | Uptake (SUVmean) (lung, 5 min): 0.65 SUV | Uptake (SUVmean) (lung, 15 min): 0.43 SUV | Uptake (SUVmean) (lung, 30 min): 0.33 SUV | Uptake (SUVmean) (lung, 45 min): 0.25 SUV | Uptake (SUVmean) (lung, 60 min): 0.25 SUV | Uptake (SUVmean) (muscle, 5 min): 0.63 SUV | Uptake (SUVmean) (muscle, 15 min): 0.49 SUV | Uptake (SUVmean) (muscle, 30 min): 0.35 SUV | Uptake (SUVmean) (muscle, 45 min): 0.26 SUV | Uptake (SUVmean) (muscle, 60 min): 0.21 SUV | Uptake (SUVmean) (small intestine, 5 min): 2.10 SUV | Uptake (SUVmean) (small intestine, 15 min): 9.48 SUV | Uptake (SUVmean) (small intestine, 30 min): 20.64 SUV | Uptake (SUVmean) (small intestine, 45 min): 29.65 SUV | Uptake (SUVmean) (small intestine, 60 min): 35.11 SUV | Uptake (SUVmean) (spleen, 5 min): 0.48 SUV | Uptake (SUVmean) (spleen, 15 min): 0.59 SUV | Uptake (SUVmean) (spleen, 30 min): 0.45 SUV | Uptake (SUVmean) (spleen, 45 min): 0.30 SUV | Uptake (SUVmean) (spleen, 60 min): 0.24 SUV | Uptake (SUVmean) (stomach, 5 min): 0.15 SUV | Uptake (SUVmean) (stomach, 15 min): 0.18 SUV | Uptake (SUVmean) (stomach, 30 min): 0.19 SUV | Uptake (SUVmean) (stomach, 45 min): 0.17 SUV | Uptake (SUVmean) (stomach, 60 min): 0.13 SUV | TAC peak value (SUV) (striatum, at 2.8 min): 0.71 SUV | peak value of brain time-activity curve (SUV) (whole brain, at 2.8 min p.i.): 0.55 SUV
